Source: PMC9851907, “A single 2′-O-methylation of ribosomal RNA gates assembly of a functional ribosome” (Nature Structural & Molecular Biology, 2022)

Target: T1, Nog2 (Nog2-3xFLAG) (Saccharomyces cerevisiae, UniProt P53742)
T1 construct: full-length, genomic C-terminal 3xFLAG-6xHis tag (kept); native anti-FLAG purification from yeast within pre-60S particle with unmodified G2922 (spb1-D52A cells)
Assay: cryo-EM structure, […] A
Type: binding
Settings: Mg2+; GTPase active site; nucleotide co-purified; pre-60S with unmethylated G2922; Table 1 lists only Mg2+ as ligand

For `Nc1nc2c(ncn2[C@@H]2O[C@H](COP(=O)(O)OP(=O)(O)O)[C@@H](O)[C@H]2O)c(=O)[nH]1` [GDP], the “cryo-EM structure, 2.9 A” value was “switch I and switch II (motifs G2 and G3) are apparently ordered around GDP”.
